Data taken from patent publication US20230406865A1, “CRYSTAL FORM OF FREE BASE OF INHIBITOR CONTAINING BICYCLIC RING DERIVATIVE AND PREPARATION METHOD AND APPLICATION OF CRYSTAL FORM” (SHANGHAI HANSOH BIOMEDICAL CO., LTD., priority 2020, published 2023).

Tests used:
KDR kinase = target: T1, KDR kinase (Homo sapiens, UniProt P35968); assay: HTRF kinase activity inhibition, KDR; assay type: biochemical; conditions: for IC50: HTRF, ATP at Km; for Ratio (KDR/RET): KDR IC50 / RET IC50
T1 construct: purchased Carna 08-191
T1 sequence (P35968 20-1356): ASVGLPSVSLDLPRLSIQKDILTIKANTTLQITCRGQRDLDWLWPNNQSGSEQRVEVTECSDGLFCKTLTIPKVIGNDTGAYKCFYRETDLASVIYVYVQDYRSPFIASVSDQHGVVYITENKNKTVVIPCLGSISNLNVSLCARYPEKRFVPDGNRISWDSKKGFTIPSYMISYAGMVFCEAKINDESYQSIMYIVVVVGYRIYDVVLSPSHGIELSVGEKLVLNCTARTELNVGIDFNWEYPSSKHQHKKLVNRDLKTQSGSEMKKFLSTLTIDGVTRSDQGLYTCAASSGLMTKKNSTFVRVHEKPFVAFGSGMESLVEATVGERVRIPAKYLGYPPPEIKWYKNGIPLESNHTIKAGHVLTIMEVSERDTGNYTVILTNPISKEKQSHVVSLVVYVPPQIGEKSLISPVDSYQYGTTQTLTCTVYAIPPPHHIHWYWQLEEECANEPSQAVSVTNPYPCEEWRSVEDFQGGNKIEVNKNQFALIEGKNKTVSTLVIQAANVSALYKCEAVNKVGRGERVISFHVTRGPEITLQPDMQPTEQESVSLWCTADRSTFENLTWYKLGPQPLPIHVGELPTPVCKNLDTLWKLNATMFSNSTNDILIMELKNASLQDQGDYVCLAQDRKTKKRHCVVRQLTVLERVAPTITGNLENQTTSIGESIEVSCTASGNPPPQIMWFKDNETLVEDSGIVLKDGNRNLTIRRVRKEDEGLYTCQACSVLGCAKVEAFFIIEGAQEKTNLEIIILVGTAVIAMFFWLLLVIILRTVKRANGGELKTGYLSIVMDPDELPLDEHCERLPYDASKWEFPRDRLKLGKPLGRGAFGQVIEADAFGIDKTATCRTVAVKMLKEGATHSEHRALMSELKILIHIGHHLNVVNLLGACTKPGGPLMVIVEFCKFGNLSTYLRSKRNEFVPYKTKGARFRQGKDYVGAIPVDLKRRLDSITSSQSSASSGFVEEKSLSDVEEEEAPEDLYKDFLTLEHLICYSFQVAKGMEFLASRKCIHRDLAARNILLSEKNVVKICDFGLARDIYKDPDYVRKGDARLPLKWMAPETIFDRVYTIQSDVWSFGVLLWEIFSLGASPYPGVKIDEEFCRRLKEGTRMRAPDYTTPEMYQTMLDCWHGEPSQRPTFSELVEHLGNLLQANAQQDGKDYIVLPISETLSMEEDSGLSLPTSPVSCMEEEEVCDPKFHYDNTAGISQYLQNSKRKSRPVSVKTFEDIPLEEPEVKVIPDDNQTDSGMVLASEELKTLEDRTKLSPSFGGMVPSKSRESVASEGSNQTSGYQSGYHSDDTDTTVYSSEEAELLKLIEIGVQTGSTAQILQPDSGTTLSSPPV
In short: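 Inhibition of KDR kinase activity measured by homogeneous time-resolved fluorescence with a tyrosine-kinase KinEASE substrate kit and ATP.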

KIF5B-RET = target: T2, KIF5B-RET (Homo sapiens, UniProt P07949); assay: HTRF kinase activity inhibition, KIF5B-RET; assay type: biochemical; conditions: ATP at Km
T2 construct: purchased SignalChem R02-19FG-05; the other entry of the earlier key: KIF5B (P33176, Kinesin-1 heavy chain)
T2 sequence (P07949 with tags, fused parts or gaps): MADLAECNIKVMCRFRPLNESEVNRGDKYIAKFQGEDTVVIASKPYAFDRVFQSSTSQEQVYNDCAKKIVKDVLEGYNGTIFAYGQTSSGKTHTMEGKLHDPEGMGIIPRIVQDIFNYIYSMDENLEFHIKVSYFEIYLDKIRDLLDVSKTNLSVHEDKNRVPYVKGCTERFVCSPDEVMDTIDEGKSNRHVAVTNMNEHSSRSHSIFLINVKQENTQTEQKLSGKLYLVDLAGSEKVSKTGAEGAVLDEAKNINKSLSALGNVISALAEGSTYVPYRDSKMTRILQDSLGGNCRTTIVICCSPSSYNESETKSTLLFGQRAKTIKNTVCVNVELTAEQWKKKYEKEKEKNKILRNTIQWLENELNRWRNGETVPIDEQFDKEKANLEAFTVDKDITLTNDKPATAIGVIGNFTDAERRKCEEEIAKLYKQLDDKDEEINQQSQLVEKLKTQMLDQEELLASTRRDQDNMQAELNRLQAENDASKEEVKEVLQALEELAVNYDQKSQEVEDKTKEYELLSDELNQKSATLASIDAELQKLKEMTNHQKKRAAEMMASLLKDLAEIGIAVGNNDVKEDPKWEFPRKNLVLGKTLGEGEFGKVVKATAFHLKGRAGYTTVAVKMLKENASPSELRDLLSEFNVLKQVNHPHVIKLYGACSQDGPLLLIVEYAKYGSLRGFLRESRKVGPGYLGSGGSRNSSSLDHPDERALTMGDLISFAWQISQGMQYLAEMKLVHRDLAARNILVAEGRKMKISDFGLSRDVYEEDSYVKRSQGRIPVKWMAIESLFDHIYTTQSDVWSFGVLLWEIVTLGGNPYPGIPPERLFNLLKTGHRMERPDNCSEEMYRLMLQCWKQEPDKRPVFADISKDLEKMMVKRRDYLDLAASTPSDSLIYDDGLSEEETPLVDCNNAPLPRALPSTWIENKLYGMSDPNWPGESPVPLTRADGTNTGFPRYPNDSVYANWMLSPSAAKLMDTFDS
Description: (§1) 2.2 Experimental Reagents: • RET enzyme was purchased from Carna Company, and the article number was 08-159; • RET M918T enzyme was purchased from Carna Company, and the article number was 08-508; • KIF5B-RET was purchased from SignalChem Company, the article number was R02-19FG-05; • CCDC6-RET was purchased from SignalChem Company, the article number was R02-19BG-05; • RET V804M enzyme was purchased from Thermofisher Company, and the article number was PV6223; • RET V804L enzyme was purchased from Thermofisher Company, and the article number was PV4397; • HTRF KinEASE-TK kit was purchased from Cisbio Company, and the article number was 62TK0PEC; • ATP was purchased from Thermofisher Company, and the article number was PV3227; • 384-well plate was purchased from PerkinElmer Company, and the article number was 6007290.
(§2) In this experiment, a homogeneous time-resolved fluorescence (HTRF) method was used for the detection of compounds on RET kinase activity.

RET M918T = target: T3, RET M918T (Homo sapiens, UniProt P07949, M918T); assay: HTRF kinase activity inhibition, RET M918T; assay type: biochemical; conditions: ATP at Km
T3 construct: purchased Carna 08-508
T3 sequence (P07949 29-1114 M918T): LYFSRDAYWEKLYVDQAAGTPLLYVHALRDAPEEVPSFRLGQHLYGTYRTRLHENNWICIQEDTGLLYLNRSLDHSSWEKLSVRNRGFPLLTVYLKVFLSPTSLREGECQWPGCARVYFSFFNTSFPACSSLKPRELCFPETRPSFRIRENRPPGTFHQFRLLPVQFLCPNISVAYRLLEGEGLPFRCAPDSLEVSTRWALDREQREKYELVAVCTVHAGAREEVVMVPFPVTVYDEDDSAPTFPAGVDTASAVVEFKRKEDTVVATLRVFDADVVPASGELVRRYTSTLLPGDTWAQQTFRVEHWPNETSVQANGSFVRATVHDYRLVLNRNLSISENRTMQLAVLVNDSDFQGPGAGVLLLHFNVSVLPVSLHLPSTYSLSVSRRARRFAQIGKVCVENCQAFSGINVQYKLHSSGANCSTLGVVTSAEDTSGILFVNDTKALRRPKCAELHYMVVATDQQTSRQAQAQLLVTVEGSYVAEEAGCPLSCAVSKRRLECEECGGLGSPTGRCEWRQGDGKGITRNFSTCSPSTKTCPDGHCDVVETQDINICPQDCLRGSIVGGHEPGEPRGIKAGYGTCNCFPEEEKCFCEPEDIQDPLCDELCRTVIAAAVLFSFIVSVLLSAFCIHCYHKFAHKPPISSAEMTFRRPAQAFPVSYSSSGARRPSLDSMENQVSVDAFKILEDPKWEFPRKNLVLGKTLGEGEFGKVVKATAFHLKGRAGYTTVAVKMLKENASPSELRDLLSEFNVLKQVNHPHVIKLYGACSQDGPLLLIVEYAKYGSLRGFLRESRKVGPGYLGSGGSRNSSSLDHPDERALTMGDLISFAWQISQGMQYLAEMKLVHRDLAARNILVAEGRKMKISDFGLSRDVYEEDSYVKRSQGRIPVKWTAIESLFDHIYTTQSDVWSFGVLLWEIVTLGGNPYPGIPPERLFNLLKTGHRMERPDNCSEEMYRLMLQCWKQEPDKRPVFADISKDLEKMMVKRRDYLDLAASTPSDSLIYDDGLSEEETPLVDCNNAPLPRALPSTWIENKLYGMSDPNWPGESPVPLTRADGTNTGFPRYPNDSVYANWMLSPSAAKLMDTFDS
Description: as §1, §2

CCDC6-RET = target: T4, CCDC6-RET (Homo sapiens, UniProt P07949); assay: HTRF kinase activity inhibition, CCDC6-RET; assay type: biochemical; conditions: ATP at Km
T4 construct: purchased SignalChem R02-19BG-05; the other entry of the earlier key: CCDC6 (Q16204, Coiled-coil domain-containing protein 6)
T4 sequence (P07949 with tags, fused parts or gaps): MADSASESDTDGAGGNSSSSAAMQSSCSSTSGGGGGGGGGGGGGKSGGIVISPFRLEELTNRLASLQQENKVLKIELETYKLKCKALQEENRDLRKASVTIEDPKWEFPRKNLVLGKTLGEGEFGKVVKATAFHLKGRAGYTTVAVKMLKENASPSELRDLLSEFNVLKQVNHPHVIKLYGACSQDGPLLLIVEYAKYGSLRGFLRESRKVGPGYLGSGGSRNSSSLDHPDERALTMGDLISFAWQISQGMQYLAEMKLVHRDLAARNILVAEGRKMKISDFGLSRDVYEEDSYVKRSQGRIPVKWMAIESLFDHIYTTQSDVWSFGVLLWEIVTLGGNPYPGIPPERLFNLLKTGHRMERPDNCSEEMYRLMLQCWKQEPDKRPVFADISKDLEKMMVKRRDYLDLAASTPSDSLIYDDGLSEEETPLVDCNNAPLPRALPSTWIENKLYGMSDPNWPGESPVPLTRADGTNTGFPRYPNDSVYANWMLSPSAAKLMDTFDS
Description: as §1, §2

[1] = system: TT cells (MTC, RET C634W); assay: Inhibition of proliferation of TT cells (CellTiter-Glo, 72 h); assay type: cell-based; conditions: Homo sapiens
In short: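 TT cells seeded overnight, then exposed to compound dilutions for 72 h at 37 °C, 5% CO2, with a solvent control. Viability read by CellTiter-Glo luminescence; IC50 from nonlinear regression of inhibition rate versus concentration.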

IC50 (CCDC6-RET) [pM]	SMILES	IC50 (KDR kinase) [pM]	Ratio (KDR/RET) (KDR kinase)	IC50 (KIF5B-RET) [pM]	IC50 (RET M918T) [pM]	IC50 [1] [pM]
850	C#C[C@@](C)(O)COc1cc(-c2ccc(N3CC4CC(C3)N4Cc3ccc(OC)nc3)nc2)c2c(C#N)cnn2c1 [Embodiment 63, 6-(((R)-2-hydroxy-2-methylbut-3-yn-1-yl)oxy)-4-(6-(6-((6-methoxypyridin-3-yl)methyl)-3,6-diazabicyclo[3.1.1]heptan-3-yl)pyridin-3-yl)pyrazolo[1,5-a]pyridine-3-carbonitrile]	21700	63	530	210	14100
–	COc1ncc(CN2C3CC2CN(c2ccc(-c4cc(C#CC(C)(C)O)cn5ncc(C#N)c45)cn2)C3)cc1F [Embodiment 18, 4-(6-(6-((5-Fluoro-6-methoxypyridin-3-yl)methyl)-3,6-diazabicyclo[3.1.1]heptan-3-yl)pyridin-3-yl)-6-(3-hydroxy-3-methylbut-1-yn-1-yl)pyrazolo[1,5-a]pyridine-3-carbonitrile]	23000	73	970	660	19000
1740	C#C[C@](C)(O)COc1cc(-c2ccc(N3CC4CC(C3)N4Cc3ccc(OC)nc3)nc2)c2c(C#N)cnn2c1 [Embodiment 64, 6-(((S)-2-hydroxy-2-methylbut-3-yn-1-yl)oxy)-4-(6-(6-((6-methoxypyridin-3-yl)methyl)-3,6-diazabicyclo[3.1.1]heptan-3-yl)pyridin-3-yl)pyrazolo[1,5-a]pyridine-3-carbonitrile]	44300	118	360	170	27800

SMILES	IC50 (CCDC6-RET) [pM]	IC50 (KDR kinase) [pM]	Ratio (KDR/RET) (KDR kinase)	IC50 (KIF5B-RET) [pM]	IC50 (RET M918T) [pM]	IC50 [1] [pM]
COc1ccc(CN2C3CC2CN(c2ccc(-c4cc(N5CC(C)(C#N)C5)cn5ncc(C#N)c45)cn2)C3)cn1 [Embodiment 77, 6-(3-Cyano-3-methylazetidin-1-yl)-4-(6-(6-((6-methoxypyridin-3-yl)methyl)-3,6-diazabicyclo[3.1.1]heptan-3-yl)pyridin-3-yl)pyrazolo[1,5-a]pyridine-3-carbonitrile]	980	6900	19	420	410	4100
